The target of this experiment is T1, Tumor necrosis factor receptor superfamily member 1A (Homo sapiens, UniProt P19438).
T1 sequence (P19438 whole entry): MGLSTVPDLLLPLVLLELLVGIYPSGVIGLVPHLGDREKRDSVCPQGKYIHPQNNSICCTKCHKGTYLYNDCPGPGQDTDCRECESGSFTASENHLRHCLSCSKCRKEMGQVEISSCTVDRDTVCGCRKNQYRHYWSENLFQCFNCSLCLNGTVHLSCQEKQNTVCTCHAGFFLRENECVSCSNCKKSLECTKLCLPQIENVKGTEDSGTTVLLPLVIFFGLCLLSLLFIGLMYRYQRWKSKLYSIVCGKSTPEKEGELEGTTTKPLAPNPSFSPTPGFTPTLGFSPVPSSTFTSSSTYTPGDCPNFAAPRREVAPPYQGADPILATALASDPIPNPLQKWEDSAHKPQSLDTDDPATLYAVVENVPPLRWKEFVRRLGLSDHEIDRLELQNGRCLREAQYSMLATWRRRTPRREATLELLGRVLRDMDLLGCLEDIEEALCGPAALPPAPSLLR
As to the kind of experiment: ChEBML_224214. From the text:
Inhibition of TNF-alpha-induced VCAM-1 expression

pIC50: −log10 of the molar value.

For `COc1cc(/C=C/C(=O)c2cc(OC)c(OC)c(OC)c2)cc(Br)c1OC` [(E)-3-(3-Bromo-4,5-dimethoxy-phenyl)-1-(3,4,5-trimethoxy-phenyl)-propenone], the pIC50 (as a rule, −log10 of the IC50, conventionally taken in molar units) was 5.40.
`CCOc1ccc(/C=C/C(=O)c2cc(-c3cccs3)ccc2OC)cc1F` [(E)-3-(4-Ethoxy-3-fluoro-phenyl)-1-(2-methoxy-5-thiophen-2-yl-phenyl)-propenone] showed a pIC50 of 5.40.
In turn, `COc1cc(C(=O)/C=C/c2ccc(-c3cccs3)cc2)cc(OC)c1OC` [(E)-3-(4-Thiophen-2-yl-phenyl)-1-(3,4,5-trimethoxy-phenyl)-propenone] had a pIC50 of 5.22.
As for `COc1cc(OC)c(-c2cc3ccccc3s2)cc1/C=C/C(=O)c1ccc(OC)c(OC)c1OC` [(E)-3-(5-Benzo[b]thiophen-2-yl-2,4-dimethoxy-phenyl)-1-(2,3,4-trimethoxy-phenyl)-propenone], the pIC50 was 5.10.
In turn, `COc1cc(OC)c(-c2cc3ccccc3s2)cc1/C=C/C(=O)c1cc(OC)c(OC)c(OC)c1` [(E)-3-(5-Benzo[b]thiophen-2-yl-2,4-dimethoxy-phenyl)-1-(3,4,5-trimethoxy-phenyl)-propenone] showed a negative logarithm of the IC50 (pIC50) of 5.30.
The compound `COc1cc(OC)c(-c2cc3ccccc3s2)cc1/C=C/C(=O)c1ccc(OC)c(OC)c1` [(E)-3-(5-Benzo[b]thiophen-2-yl-2,4-dimethoxy-phenyl)-1-(3,4-dimethoxy-phenyl)-propenone] showed a pIC50 of 4.96.
`COc1cc(OC)c(-c2cc3ccccc3s2)cc1/C=C/C(=O)c1cc(OC)c(OCC2CC2)c(OC)c1` [(E)-3-(5-Benzo[b]thiophen-2-yl-2,4-dimethoxy-phenyl)-1-(4-cyclopropylmethoxy-3,5-dimethoxy-phenyl)-propenone]: the pIC50 is under 4.30.
For `COc1cc(OC)c(-c2cc3ccccc3s2)cc1/C=C/C(=O)c1cc(OC)c(O)c(OC)c1` [(E)-3-(5-Benzo[b]thiophen-2-yl-2,4-dimethoxy-phenyl)-1-(4-hydroxy-3,5-dimethoxy-phenyl)-propenone] the value was 6.00; for `COc1cc(OC)c(-c2cc3ccccc3s2)cc1/C=C/C(=O)c1ccc(NC2OC(CO)C(O)C(O)C2O)cc1` (configuration not stated) [(E)-3-(5-Benzo[b]thiophen-2-yl-2,4-dimethoxy-phenyl)-1-[4-(3,4,5-trihydroxy-6-hydroxymethyl-tetrahydro-pyran-2-ylamino)-phenyl]-propenone], 4.77; for `COc1ccc(-c2cc3ccccc3s2)cc1/C=C/C(=O)c1cc(OC)c(OC)c(OC)c1` [(E)-3-(5-Benzo[b]thiophen-2-yl-2-methoxy-phenyl)-1-(3,4,5-trimethoxy-phenyl)-propenone], 5.70.
For `COc1ccc(-c2cc3ccccc3s2)cc1/C=C/C(=O)c1ccc(OC)c(OC)c1` [(E)-3-(5-Benzo[b]thiophen-2-yl-2-methoxy-phenyl)-1-(3,4-dimethoxy-phenyl)-propenone] the value was 5.70.
For the compound `COc1ccc(C(=O)/C=C/c2cc(-c3cc4ccccc4s3)ccc2OC)cc1` [(E)-3-(5-Benzo[b]thiophen-2-yl-2-methoxy-phenyl)-1-(4-methoxy-phenyl)-propenone], the negative-log IC50 (pIC50) is 5.52.
For `COc1cc(OC)c(/C=C/C(=O)c2cc(OC)c(OC)c(OC)c2)cc1Br` [(E)-3-(5-Bromo-2,4-dimethoxy-phenyl)-1-(3,4,5-trimethoxy-phenyl)-propenone] the value was 5.70; for `COc1ccc(Br)cc1/C=C/C(=O)c1cc(OC)c(OC)c(OC)c1` [(E)-3-(5-Bromo-2-methoxy-phenyl)-1-(3,4,5-trimethoxy-phenyl)-propenone], 6.00; for `COc1ccc(-c2cc(C)cs2)cc1/C=C/C(=O)c1cc(OC)c(OC)c(OC)c1` [(E)-3-[2-Methoxy-5-(4-methyl-thiophen-2-yl)-phenyl]-1-(3,4,5-trimethoxy-phenyl)-propenone], 5.70.
For the compound `COc1ccc(-c2ccc(C)s2)cc1/C=C/C(=O)c1cc(OC)c(OC)c(OC)c1` [(E)-3-[2-Methoxy-5-(5-methyl-thiophen-2-yl)-phenyl]-1-(3,4,5-trimethoxy-phenyl)-propenone], the pIC50 is 5.70.
Then `COc1cc(C(=O)C=Cc2cc(OC)c(OC)c(-c3ccc(C(C)=O)s3)c2)cc(OC)c1OC` [(E)-3-[3-(5-Acetyl-thiophen-2-yl)-4,5-dimethoxy-phenyl]-1-(3,4,5-trimethoxy-phenyl)-propenone], with 5.52; and `O=C(/C=C/c1ccccc1)c1ccccc1` [Chalcone, 13], with 4.64.
Compound `COc1cc(OCC(=O)O)c(/C=C/C(=O)c2ccccc2)cc1-c1cc2ccccc2s1` [[4-Benzo[b]thiophen-2-yl-5-methoxy-2-((E)-3-oxo-3-phenyl-propenyl)-phenoxy]-acetic acid] gave a pIC50 of 6.00.
Then `COc1ccc(-c2cccs2)cc1/C=C/C(=O)c1cc(OC)c(OCC(=O)O)c(OC)c1` [{2,6-Dimethoxy-4-[(E)-3-(2-methoxy-5-thiophen-2-yl-phenyl)-acryloyl]-phenoxy}-acetic acid], with 6.00; and `COc1cc(C(=O)/C=C/c2cc(OC)c(OC)c(-c3cccs3)c2)cc(OC)c1OCC(=O)O` [{4-[(E)-3-(3,4-Dimethoxy-5-thiophen-2-yl-phenyl)-acryloyl]-2,6-dimethoxy-phenoxy}-acetic acid], with 6.00; and `COc1cc(OC)c(-c2cc3ccccc3s2)cc1/C=C/C(=O)c1ccc(SCC(=O)O)cc1` [{4-[(E)-3-(5-Benzo[b]thiophen-2-yl-2,4-dimethoxy-phenyl)-acryloyl]-phenylsulfanyl}-acetic acid], with 6.00.

The record behind these values is BindingDB's records for doi:10.1016/j.bmcl.2004.01.021 (Atherogenics, 2004).
